In patent US20250206761A1, “HALOINDOLE MACROCYCLIC COMPOUNDS FOR THE TREATMENT OF CANCER” (Hoffmann-La Roche Inc., priority 2022, published 2025):

Legend:
[1] = system: NCI-H358 (ATCC-CRL5807) cells; test: Cell viability assay, G12C (NCI-H358); format: cell-based, human; conditions: Homo sapiens; KRAS cell viability, NCI-H358, 72 hrs, Cell Counting Kit-8
Outline: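 Cells seeded at 5,000/well (NCI-H358) or 2,000/well (AGS, SW620), treated next day at 0.5% final DMSO for 72 h. Viability read by CCK-8 (OD450 minus OD650) after 2 h; IC50 from 4-parameter sigmoidal fit.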

KRAS G12C-BRAF complex = KRAS G12C-BRAF complex (Homo sapiens (Human), UniProt P01116+P62937, G12C); test: KRAS G12C-BRAF NanoBit assay; format: cell-based; conditions: HEK293 cells, 3 hours of incubation
Outline: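 Stable HEK293 pool co-expressing SmBit-KRAS G12C and BRAF RBD-LgBit; 10,000 cells/well incubated 3 h with compound, 16-point 3-fold dilution from 30 μM final. Live-cell Nano-Glo substrate added, luminescence read at 20 min; disruption seen as luminescence decrease vs DMSO.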

[2] = target: KRAS G12V binding to BRAF (Homo sapiens (Human), UniProt P01116+P62937, G12V); test: KRAS-BRAF with CYPA (500 nM) interaction assay (TR-FRET), G12V; format: biochemical
Outline: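 A TR-FRET assay measured how compound, in the presence of CYPA, disrupts binding of GMPPNP-loaded 6His-KRAS G12V to BRAF. The buffer contained 25 mM HEPES PH=7.4, 0.002% Tween20, 0.1% BSA, 100 mM NaCl, 5 mM MgCl2 and 10 μM GMPPNP. Compounds ran as a 16-point 3-fold dilution series from 10 μM for 3 hours.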

[3] = system: phosphorylation of ERK, KRAS G12V in SW620; test: pERK inhibition assay, KRAS G12V; format: cell-based, human; conditions: Homo sapiens, SW-620, SW620, 4 hours
Outline: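 Read-out is OD450 from a TMB colorimetric cell ELISA using a phospho-ERK-specific antibody and HRP-linked secondary. Compounds were incubated with the cells for 4 hours at 0.5% DMSO before fixation and permeabilization. IC50 values come from 4-parameter concentration-response fitting.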

Chain of KRAS G12V binding to BRAF (P01116-2 other isoform, or with tags, fused parts or gaps G12V): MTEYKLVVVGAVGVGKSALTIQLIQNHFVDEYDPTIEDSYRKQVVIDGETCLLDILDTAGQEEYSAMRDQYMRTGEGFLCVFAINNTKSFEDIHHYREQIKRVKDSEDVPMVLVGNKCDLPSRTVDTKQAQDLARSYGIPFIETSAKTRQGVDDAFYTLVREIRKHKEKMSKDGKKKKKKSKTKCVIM
Chain of KRAS G12V binding to BRAF (P62937 whole entry): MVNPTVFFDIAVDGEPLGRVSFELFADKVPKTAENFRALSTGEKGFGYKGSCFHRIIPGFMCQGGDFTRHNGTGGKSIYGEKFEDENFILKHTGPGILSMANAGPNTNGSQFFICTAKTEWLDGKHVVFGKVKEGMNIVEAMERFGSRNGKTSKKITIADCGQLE
Chain of KRAS G12C-BRAF complex (P01116-2 other isoform, or with tags, fused parts or gaps G12C): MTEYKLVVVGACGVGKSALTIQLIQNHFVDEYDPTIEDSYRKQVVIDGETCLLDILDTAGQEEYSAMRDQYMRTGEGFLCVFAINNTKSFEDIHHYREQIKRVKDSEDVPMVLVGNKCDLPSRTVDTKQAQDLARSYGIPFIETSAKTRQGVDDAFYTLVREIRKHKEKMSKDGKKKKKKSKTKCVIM
Chain of KRAS G12C-BRAF complex (P62937 whole entry): as the sequence (P62937 whole entry) above

Question: Which IC50 [1] does the source give for CCn1c(-c2cc(N3CCOCC3)cnc2[C@H](C)OC)c2c3cc(c(F)cc31)-c1csc(n1)C[C@H](NC(=O)[C@H](C(C)C)N1CCC3(CN(C(=O)[C@H](F)Cl)C3)C1=O)C(=O)N1CCC[C@H](N1)C(=O)OCC(C)(C)C2 (atropisomer, axis not shown; (M)) [Example 52, (2S)-2-[2-[(2R)-2-chloro-2-fluoro-acetyl]-5-oxo-2,6-diazaspiro[3.4]octan-6-yl]-N-[(7S,13S)-21-ethyl-24-fluoro-(20M)-20-[2-[(1S)-1-methoxyethyl]-5-morpholino-3-pyridyl]-17,17-dimethyl-8,14-dioxo-15-oxa-4-thia-9,21,27,28-tetrazapentacyclo[17.5.2.1^2,5.1^9,13.0^22,26]octacosa-1(25),2,5(28),19,22(26),23-hexaen-7-yl]-3-methyl-butanamide] here?
Answer: < 1 nM

Question: What about the IC50 (KRAS G12C-BRAF complex) of the same molecule?
Answer: 70 nM

Question: What about the IC50 [2] of the same molecule?
Answer: > 10000 nM

Question: And the IC50 [3]?
Answer: 58 nM
